# “Also recorded” adds a separate entry of the source. Square brackets hold non-standard residues; d marks the D form. Peptide text beside a SMILES is read from it. Aib = CC(C)(N)C(=O)O
# T1: rat PTHR1 (Rattus norvegicus, UniProt P25961)
# T1 construct: expressed in transfected cells
# T1 sequence (P25961 27-591): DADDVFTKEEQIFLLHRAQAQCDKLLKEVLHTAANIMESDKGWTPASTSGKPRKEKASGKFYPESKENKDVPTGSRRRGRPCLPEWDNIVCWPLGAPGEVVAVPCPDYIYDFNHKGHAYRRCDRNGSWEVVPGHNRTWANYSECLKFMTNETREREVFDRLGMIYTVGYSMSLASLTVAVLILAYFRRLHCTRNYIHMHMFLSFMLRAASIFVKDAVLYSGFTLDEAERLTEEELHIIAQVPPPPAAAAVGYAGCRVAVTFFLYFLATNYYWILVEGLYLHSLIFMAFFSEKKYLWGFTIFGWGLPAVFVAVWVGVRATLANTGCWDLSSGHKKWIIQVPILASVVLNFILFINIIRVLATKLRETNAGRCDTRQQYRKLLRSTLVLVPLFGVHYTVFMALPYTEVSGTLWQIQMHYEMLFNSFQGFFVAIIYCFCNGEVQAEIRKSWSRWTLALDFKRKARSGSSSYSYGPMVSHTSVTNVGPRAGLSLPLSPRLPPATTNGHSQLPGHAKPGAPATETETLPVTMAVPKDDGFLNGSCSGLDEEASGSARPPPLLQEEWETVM
# T2: human PTHR1 (Homo sapiens, UniProt Q03431)
# T2 construct: expressed in transfected cells
# T2 sequence (Q03431 27-593): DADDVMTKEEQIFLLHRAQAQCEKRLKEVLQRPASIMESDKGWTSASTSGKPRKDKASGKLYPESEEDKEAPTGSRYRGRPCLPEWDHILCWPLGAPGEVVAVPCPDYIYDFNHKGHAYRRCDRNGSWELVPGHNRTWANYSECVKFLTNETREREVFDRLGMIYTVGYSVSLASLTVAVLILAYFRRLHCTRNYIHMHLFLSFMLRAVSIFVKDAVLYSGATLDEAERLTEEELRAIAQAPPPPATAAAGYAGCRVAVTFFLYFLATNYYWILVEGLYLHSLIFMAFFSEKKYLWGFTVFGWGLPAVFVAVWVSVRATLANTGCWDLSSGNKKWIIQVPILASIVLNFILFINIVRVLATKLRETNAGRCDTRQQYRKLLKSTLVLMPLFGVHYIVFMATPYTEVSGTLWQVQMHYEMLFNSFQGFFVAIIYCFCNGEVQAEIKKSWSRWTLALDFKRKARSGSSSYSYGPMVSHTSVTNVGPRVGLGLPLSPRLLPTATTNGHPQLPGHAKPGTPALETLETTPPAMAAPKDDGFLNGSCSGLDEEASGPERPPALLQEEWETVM
# T3: PTHR16E (Homo sapiens, UniProt Q03431, A83I/D81R/G76A/K80A/K82Q/P78E/R79L/S71Q/S73D/S75E/T74Q)
# T3 construct: expressed in transfected cells
# T3 sequence (Q03431 27-593 S71Q/S73D/T74Q/S75E/G76A/P78E/R79L/K80A/D81R/K82Q/A83I): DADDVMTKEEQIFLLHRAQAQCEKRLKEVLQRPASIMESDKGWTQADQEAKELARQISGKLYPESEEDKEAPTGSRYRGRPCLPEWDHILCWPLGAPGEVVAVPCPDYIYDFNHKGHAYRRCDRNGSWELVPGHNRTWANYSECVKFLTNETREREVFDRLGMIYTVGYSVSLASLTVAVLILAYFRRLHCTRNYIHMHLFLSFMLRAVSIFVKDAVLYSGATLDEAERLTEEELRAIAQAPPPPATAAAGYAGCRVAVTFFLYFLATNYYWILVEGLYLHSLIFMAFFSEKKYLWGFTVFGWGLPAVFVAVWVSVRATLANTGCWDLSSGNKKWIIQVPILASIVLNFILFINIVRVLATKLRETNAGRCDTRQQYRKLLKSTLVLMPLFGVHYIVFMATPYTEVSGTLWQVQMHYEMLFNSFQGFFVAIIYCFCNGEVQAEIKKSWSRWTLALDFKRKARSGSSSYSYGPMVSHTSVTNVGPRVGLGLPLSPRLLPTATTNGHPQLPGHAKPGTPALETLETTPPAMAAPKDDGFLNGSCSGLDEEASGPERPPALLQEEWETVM
# Assays:
# rat PTHR1 [1] = target: T1, rat PTHR1; experiment: cAMP induction in HEK293 cells stably expressing rat PTHR1; format: cell-based
# Procedure: (§1) Measurement of cAMP response. These assays were performed as previously described^27. […] Confluent monolayers of cells were pre-incubated with CO2 independent medium containing D-luciferin (0.5 mM) at 37° C. until a stable baseline level of luminescence was established (20 min). Varying concentrations of ligands were then added, and the time course of luminescence response was recorded using BioTek plate reader.
# (§2) Data calculations. Data were processed using Microsoft Excel and GraphPad Prism 6. Data from cAMP dose-response assays were analyzed using a sigmoidal dose-response model with variable slope. Data sets were statistically compared by using Student's t test (two-tailed) assuming unequal variances for the two sets.
# human PTHR1 = target: T2, human PTHR1; experiment: cAMP induction (cAMP-responsive luciferase) in HEK293 cells stably expressing human PTHR1; format: cell-based
# Procedure: as §1, §2
# PTHR2 [2] = target: T4, PTHR2 (Homo sapiens, UniProt P49190); experiment: cAMP induction in HEK293 cells stably expressing human PTHR2; format: cell-based; conditions: at 100 uM
# T4 construct: expressed in transfected cells
# Procedure: as §1, §2
# PTHR16E = target: T3, PTHR16E; experiment: cAMP induction in HEK293 cells stably expressing PTHR16E (6E/Ubc6e epitope tag in exon 2 segment); format: cell-based
# Procedure: Measurement of cAMP response. These assays were performed as previously described^27. Briefly, HEK-293-derived cell lines that stably express the Glosensor cAMP reporter (Promega Corp.)^30 and PTHR1, a PTHR1 variant, or PTHR2 were seeded into white sided 96 well plates (50,000 cells/well) and grown to confluency. Confluent monolayers of cells were pre-incubated with CO2 independent medium containing D-luciferin (0.5 mM) at 37° C. until a stable baseline level of luminescence was established (20 min). Varying concentrations of ligands were then added, and the time course of luminescence response was recorded using BioTek plate reader.
# as §2
# The portion of PTHR1 encoded by exon 2 is not resolved in structural studies (FIG. 12—Panel d)^13, 14, 17, is not important for ligand binding^18, and in past work has been targeted as a site for receptor modification^18, 19. A construct was generated that encodes a PTHR1 variant in which a 14-residue fragment from exon 2 was replaced with a 14-mer epitope tag from the intracellular protein UBC6e (PTHR16E, FIG. 12—Panel d)^20. A receptor construct in which a pH-sensitive green fluorescent protein variant (GFP) was inserted into the portion of the receptor encoded by exon 2 (PTHR1GFP in FIGS. 17A to 17C)^19. Another version of PTHR1 in which yellow fluorescent protein (YFP) replaces the entire extracellular domain (PTHR1YFPΔECD, FIG. 12—Panel e)^21, was also used.
# PTHR1GFP = experiment: Flow cytometry staining by VHH-Alexafluor647 of HEK293 cells expressing PTHR1GFP; format: binding, human; conditions: 100 nM VHH
# Procedure: FIGS. 17A-17C: Use of PTHR1-GFP. (FIG. 17A) Hypothetical structure of PTHR1 with GFP engrafted into exon 2 bound to a GFP binding nanobody. (FIG. 17B) Flow cytometry analysis of cells stably expressing PTHR1-GFP. HEK293 cell lines in suspension were incubated on ice with 100 nM VHH sortagged with Alexafluor647, pelleted by centrifugation, washed and analyzed. […] This weak staining is likely related to the inability of VHHGFP to tightly bind the pH-sensitive GFP variant known as pHluorin2 engrafted into the receptor (ref. 19, main text). (FIG. 17C) HEK293 cells stably expressing PTHR1-GFP were treated with varied doses of the indicated peptides or conjugates and activation was assessed by measuring luminescence from a cAMP-activated luciferase variant. Values listed represent EC50 values (mean±SD). Each value comes from ≥3 independent experiments. Further details, including the number of replicates for each measurement and the normalized maximal responses induced, are reported in Table 5.
# Flow cytometry. Suspensions of cells in PBS were stained for 1 hour on ice in the presence of indicated concentrations of VHH probes functionalized with Alexafluor647. Cells were pelleted by centrifugation and washed with PBS prior to analysis by flow cytometry (BD Accuri C6). Gating was performed on forward scatter/side scatter profiles to analyze intact cells. Data was analyzed using FlowJo version 7.6. […]
# PTHR1YFPΔECD = experiment: Flow cytometry staining by VHH-Alexafluor647 of HEK293 cells expressing PTHR1YFPΔECD; format: binding, human
# Procedure: (§3) Flow cytometry. Suspensions of cells in PBS were stained for 1 hour on ice in the presence of indicated concentrations of VHH probes functionalized with Alexafluor647. Cells were pelleted by centrifugation and washed with PBS prior to analysis by flow cytometry (BD Accuri C6). Gating was performed on forward scatter/side scatter profiles to analyze intact cells. Data was analyzed using FlowJo version 7.6. The median fluorescent intensity (MFI) of stained cells was used to generate VHH binding dose response curves (FIG. 20).
# PTHR1 = experiment: Flow cytometry staining by VHH-Alexafluor647 of HEK293 cells expressing PTHR1 constructs that retain the ECD; format: binding, human; conditions: 100 nM VHH
# Procedure: as §3
# PTHR2 [3] = target: T4, PTHR2; experiment: Flow cytometry staining by VHH-Alexafluor647 of HEK293 cells expressing PTHR2; format: binding; conditions: 100 nM VHH; listed as VHH22A3
# Procedure: as §3
# rat PTHR1 [4] = target: T1, rat PTHR1; experiment: Flow cytometry staining by VHH-Alexafluor647 of HEK293 cells expressing rat PTHR1; format: binding; conditions: 100 nM VHH
# Procedure: as §3
# T4 sequence (P49190 25-550): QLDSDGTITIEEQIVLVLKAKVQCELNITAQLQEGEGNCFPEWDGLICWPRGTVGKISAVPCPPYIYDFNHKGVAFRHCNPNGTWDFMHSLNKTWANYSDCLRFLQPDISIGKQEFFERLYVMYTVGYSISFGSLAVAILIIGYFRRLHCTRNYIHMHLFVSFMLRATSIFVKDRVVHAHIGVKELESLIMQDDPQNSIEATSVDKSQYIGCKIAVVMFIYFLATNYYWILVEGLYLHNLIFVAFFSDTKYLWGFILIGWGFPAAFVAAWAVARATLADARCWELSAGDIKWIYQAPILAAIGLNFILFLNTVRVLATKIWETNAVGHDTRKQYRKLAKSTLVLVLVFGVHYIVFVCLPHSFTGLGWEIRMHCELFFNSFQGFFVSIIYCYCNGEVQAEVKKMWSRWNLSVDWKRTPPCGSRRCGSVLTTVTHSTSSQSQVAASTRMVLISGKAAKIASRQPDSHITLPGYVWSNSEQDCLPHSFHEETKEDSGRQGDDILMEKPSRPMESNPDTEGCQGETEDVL
molecule,measurement,setting,value
CC[C@H](C)[C@H](NC(=O)[C@H](CCC(=O)O)NC(=O)C(C)(C)NC(=O)[C@@H](NC(=O)[C@H](C)N)C(C)C)C(=O)N[C@@H](CCC(N)=O)C(=O)N[C@@H](CC(C)C)C(=O)N[C@@H](CCSC)C(=O)N[C@@H](Cc1c[nH]cn1)C(=O)N[C@@H](CCC(N)=O)C(=O)N[C@@H](CCCNC(=N)N)C(=O)N[C@@H](CS)C(N)=O [PTH(1-11)] (H-AV[Aib]EIQLMHQRC-NH2),EC50,rat PTHR1 [1],120 ± 90.3 nM
same,EC50,human PTHR1,516 ± 238 nM
same,"response at 100 uM, hPTHR2",PTHR2 [2],20%
same,EC50,PTHR16E,94 ± 74 nM
"VHHGFP: nanobody that binds GFP and YFP, SEQ ID NO: 73",staining of PTHR1GFP cells (in words),PTHR1GFP,only weakly stained
same,staining of PTHR1YFPΔECD cells (in words),PTHR1YFPΔECD; 100 nM VHH,stained
same,EC50,"PTHR1YFPΔECD; flow cytometry, on ice, read-out: half-maximal staining concentration, PTHR1YFP-del-NT cells",< 10 nM
"VHHPTHR: nanobody that recognizes the PTHR1 extracellular domain, SEQ ID NO: 74, from US 2010/0062004 (protein) VHH: EVQLVESGGGLVQAGGSLRLSCAASGNIFANNIMGWYRQPPGKEREFVAHVSHDGDSMYAVSVKGRFAISRKDATNLYLQMNSLKPEDTAIYFCRLLNIPTQGRMEGFWGQGTQVTVSS",binding to PTHR1 constructs retaining the ECD (in words),PTHR1,bound all constructs that retained the PTHR1 ECD; also recorded: binds to PTHR1
same,binding to PTHR2 (in words),PTHR2 [3],lack of binding
same,binding to rat PTHR1 (in words),rat PTHR1 [4],bound

# Source: US11878063B2, “Engineered ligands and uses thereof” (Children's Medical Center Corporation, priority 2019, dated 2024)
